Measurements: patent US6436960B1, “Farnesyl transferase inhibitors having a piperidine structure and process for preparation thereof” (LG Chemical Ltd., priority 1998, dated 2002)

How the values were obtained:
Ras farnesyl transferase [1] = biological target: T1, Ras farnesyl transferase (Homo sapiens, UniProt P49354+P49356); assay: in vitro inhibitory activity for Ras farnesyl transferase, H-Ras substrate; format: biochemical; details: recombinant Ras farnesyl transferase, H-Ras substrate, tritium-farnesylpyrophosphate, 30 minutes at 37° C.; read-out: H-Ras IC50
T1 construct: made in house
Procedure: (§1) In the present experiment, Ras farnesyl transferase produced by genetic recombination techniques according to the improved Pompliano's method (Pompliano et al., Biochemistry, 1992, 31, 3800) was used, and Ras substrate(Ras-CVLS) protein described in Korean Patent Appln. No. 97-14409 was used after it has been purified according to the known method(see, Chung et al., Biochimica et Biophysica Acta, 1992, 278, 1129).
(§2) The enzyme reaction was performed in 50 μl of 50 mM Soduam HEPES buffer solution containing 25 mM of potassium chloride, 25 mM of magnesium chloride, 10 mM of DTT and 50 μM of zinc chloride. 1.5 μM of Ras substrate protein, 0.15 μM of tritium-farnesylpyrophosphate and 4.5 nM of farnesyl transferase were used.
(§3) More specifically, in the initial step, farnesyl transferase was added to the above buffer solution, reaction was maintained for 30 minutes at 37° C. and then the reaction was stopped by adding 1 ml of ethanol solution containing 1M HCl. The formed precipitates were adsorbed to GF/B filter using Hopper harvestor(Hopper #FH 225V) for filter-binding, washed with ethanol, and then radioactivity of the dried filter was measured using LKB β counter. Enzyme titer was measured in the unsaturated state of substrate where the concentrations of Ras substrate protein and farnesyl transferase have quantitative relationship. The compound according to the present invention dissolved in dimethyl sulfoxide(DMSO) was added to the reaction solution in an amount of less than 5% of the total reaction solution, and then the enzyme inhibitory activity thereof was measured. The enzyme inhibitory activity was represented by percentage of the amount of farnesyl incorporated into the Ras substrate protein in the presence of the test compound to that in the absence of the test compound. IC50 of the test compound was defined as the concentration at which 50% of the enzyme activity was inhibited.

Ras farnesyl transferase [2] = biological target: T1, Ras farnesyl transferase; assay: in vitro inhibitory activity for Ras farnesyl transferase, K-Ras substrate; format: biochemical; details: recombinant Ras farnesyl transferase, K-Ras substrate; read-out: K-Ras IC50
Procedure: as §1, with “and Ras substrate(Ras-CVLS) protein described in Korean Patent” left out
as §2, §3

Ras farnesyl transferase [3] = biological target: T2, Ras farnesyl transferase (Rattus norvegicus, UniProt Q02293+Q04631); assay: in vivo (cellular) Ras farnesyl transferase inhibitory activity, Rat2 cells expressing C-Harvey-Ras; format: cell-based; details: Rat2 cell line expressing C-Harvey-Ras; concentration inhibiting 50% of farnesyl binding of Ras protein; read-out: H-Ras CIC50
T2 construct: endogenous in cells; host or cells: Rat2 fibroblasts transformed with C-Harvey-Ras, or with H-Ras carrying the K-Ras C-terminal polybasic lysine domain
Procedure: (§4) In the present experiment, Rat2 cell line which expresses C-Harvey-Ras protein having transforming activity and Rat2 cell line(Korean patent application No. 97-14409) which is transformed with fused protein of H-Ras substituted with polybasic lysine domain at C-terminus of K-Ras were used. The experiment was performed by the modified Declue's method(Declue. J. E. et al., Cancer Research, 1991, 51, 712). Hereinafter, the experimental method will be described in more detail.
(§5) 3×10^5 cells of transformed Rat2 fibroblast cell line were sprayed on 60 mm cell cultivation dish and cultivated for 48 hours in a cell incubator at 37° C. and after 50% or more of density was reached, it was treated with the test compounds. The compound according to the present invention dissolved in dimethylsulfoxide(DMSO) was used. 1% concentration of dimethylsulfoxide was used in both control and test groups. After 4 hours from the treatment with the compound, methionine labeled with 150 μCi of radioactive isotope [^35S] per 1 ml of medium was added and after cultivating for 20 hours, the cells were washed with physiological saline water. The cells were lysed using 1 ml of cold cell lysis buffer solution(50 mM of Sodium HEPES buffer solution containing 5 mM of magnesium chloride, 1 mM of DTT, 1% NP 40, 1 mM of EDTA, 1 mM of PMSF, 2 μM of leupeptin, 2 μM of pepstatin A and 2 μM of antipain) and the supernatant wherein the cells were lysed was obtained by high-velocity centrifugation of 12,000 g×5 minutes. The amount of radioisotope in the supernatant was measured and standardized to obtain a quantitative result in immunoprecipitation reaction and then, Y13-259, a monoclonal antiboby specifically binding to Ras protein(Furth, M. E. et al., J. Virol, 1982, 43, 294) was added and reacted for 15 hours at 4° C. Protein A(combined with goat anti-murine imunoglobulin antibody)-agarose suspension was added to the solution and reacted for 1 hour at 4° C. and then, to remove the unspecific binding product, immunoprecipitates were washed with a buffer solution (50 mM Tris chloride buffer solution containing 50 mM of sodium chloride, 0.5% of sodium dioxycholate, 0.5% of NP 40 and 0.1% of SDS). The precipitates were added to a buffer solution for electrophoresis and boiled and then, electrophoresis was performed using 13.5% of SDS polyacrylamide gel. After electrophoresis, the gel was fixed and dried. Then, the gel was exposed to X-ray film, developed and printed. From the result of the experiment, intensities of band of protein combined with or without farnesyl of Ras protein were measured, and the concentration of the test compound inhibiting 50% of farnesyl binding was defined as CIC50, an in vivo Ras farnesyl transferase inhibitory activity.

Ras farnesyl transferase [4] = biological target: T2, Ras farnesyl transferase; assay: in vivo (cellular) Ras farnesyl transferase inhibitory activity, Rat2 cells transformed with H-Ras fused with polybasic lysine domain of K-Ras; format: cell-based; details: Rat2 cell line transformed with H-Ras substituted with polybasic lysine domain at C-terminus of K-Ras; concentration inhibiting 50% of farnesyl binding; read-out: K-Ras CIC50
Procedure: as §4, §5

| IC50 (Ras farnesyl transferase [1]) | IC50 (Ras farnesyl transferase [2]) | IC50 (Ras farnesyl transferase [3]) | IC50 (Ras farnesyl transferase [4]) | SMILES |
| --- | --- | --- | --- | --- |
| 8.5 nM | 2400 nM | 100 nM | 1000 to 10000 nM | O=C(OCc1ccccc1)N1CCC(Cn2cncc2Cn2cc(C(=O)N3CCOCC3)c(-c3cccc4ccccc34)c2)CC1 [Compound 1, 1-[1-(1-Benzyloxycarbonyl-piperidin-4-ylmethyl)-1H-imidazol-5-ylmethyl]-3-(morpholin-4-yl)carbonyl-4-(naphthalen-1-yl)-1H-pyrrole] |
| 8 nM | 10 to 1000 nM | 10 to 100 nM | 1000 to 10000 nM | COCCN(C)C(=O)c1cn(Cc2cncn2CC2CCNCC2)cc1-c1cccc2ccccc12 [Compound 6, 3-[N-(2-Methoxyethyl)-N-methyl]carbamoyl-4-(naphthalen-1-yl)-1-[1-(piperidin-4-ylmethyl)-1H-imidazol-5-ylmethyl]-1H-pyrrole] |
| 1.8 nM | 10 to 100 nM | 10 to 100 nM | 10000 to 100000 nM | COCCN(C)C(=O)c1cn(Cc2cncn2CC2CCN(C(C)=O)CC2)cc1-c1cccc2ccccc12 [Compound 7, 1-[1-(1-Acetyl-piperidin-4-ylmethyl)-1H-imidazol-5-ylmethyl]-3-[N-(2-methoxyethyl)-N-methyl]carbamoyl-4-(naphthalen-1-yl)-1H-pyrrole] |
| 1 to 10 nM | 10 to 1000 nM | 10 to 100 nM | 1000 to 50000 nM | COCCN(C)C(=O)c1cn(Cc2cncn2CC2CCN(C(=O)NCc3ccccc3)CC2)cc1-c1cccc2ccccc12 [Compound 9, 1-{1-[1-(N-Benzylcarbamoyl)-piperidin-4-ylmethyl]-1H-imidazol-5-ylmethyl}-3-[N-(2-methoxyethyl)-N-methyl]carbamoyl(naphthalen-1-yl)-1H-pyrrole] |
| 2.1 nM | 10 to 1000 nM | 10 to 100 nM | 1000 to 50000 nM | COCCN(C)C(=O)c1cn(Cc2cncn2CC2CCN(C(=O)COc3ccccc3)CC2)cc1-c1cccc2ccccc12 [Compound 14, 3-[N-(2-Methoxyethyl)-N-methyl]carbamoyl-4-(naphthalen-1-yl)-1-[1-(1-phenoxyacetyl-piperidin-4-ylmethyl)-1H-imidazol-5-ylmethyl]-1H-pyrrole] |

The remaining lines, values behind:

| SMILES | IC50 (Ras farnesyl transferase [1]) | IC50 (Ras farnesyl transferase [2]) | IC50 (Ras farnesyl transferase [3]) | IC50 (Ras farnesyl transferase [4]) |
| --- | --- | --- | --- | --- |
| O=C(c1cn(Cc2cncn2CC2CCNCC2)cc1-c1cccc2ccccc12)N1CCOCC1 [Compound 2] | 9 nM | 6000 nM | 100 nM | 10000 to 100000 nM |
| CC(=O)N1CCC(Cn2cncc2Cn2cc(C(=O)N3CCOCC3)c(-c3cccc4ccccc34)c2)CC1 [Compound 3, 1-[1-(1-Acetylpiperidin-4-ylmethyl)-1H-imidazol-5-ylmethyl]-3-(morpholinyl)carbonyl-4-(naphthalen-1-yl)-1H-pyrrole] | 1 nM | 16 nM | 10 to 100 nM | 10000 to 50000 nM |
| CS(=O)(=O)N1CCC(Cn2cncc2Cn2cc(C(=O)N3CCOCC3)c(-c3cccc4ccccc34)c2)CC1 [Compound 4, 1-[1-(1-Methylsulfonyl-piperidin-4-ylmethyl)-1H-imidazol-5-ylmethyl]-3-(morpholin-4-yl)carbonyl-4-(naphthalen-1-yl)-1H-pyrrole] | 3.6 nM | 26 nM | 10 to 100 nM | 10000 to 50000 nM |
| COCCN(C)C(=O)c1cn(Cc2cncn2CC2CCN(C(=O)OCc3ccccc3)CC2)cc1-c1cccc2ccccc12 [Compound 5, 1-[1-(1-Benzyloxycarbonyl-piperidin-4-ylmethyl)-1H-imidazol-5-ylmethyl]-3-[N-(2-methoxyethyl)-N-methyl]carbamoyl-4-(naphthalen-1-yl)-1H-pyrrole] | 2.5 nM | 10 to 100 nM | 10 to 100 nM | 1000 to 10000 nM |
| COCCN(C)C(=O)c1cn(Cc2cncn2CC2CCN(S(C)(=O)=O)CC2)cc1-c1cccc2ccccc12 [Compound 8, 3-[N-(2-Methoxyethyl)-N-methyl]carbamoyl-1-[1-(1-methylsulfonyl-piperidin-4-ylmethyl)-1H-imidazol-5-ylmethyl]-4-(naphthalen-1-yl)-1H-pyrrole] | 1.2 nM | 10 to 100 nM | 10 to 100 nM | 10000 to 50000 nM |
| CCCCNC(=O)N1CCC(Cn2cncc2Cn2cc(C(=O)N(C)CCOC)c(-c3cccc4ccccc34)c2)CC1 [Compound 10, 1-{1-[1-(N-Butylcarbamoyl)-piperidin-4-ylmethyl]-1H-imidazol-5-ylmethyl}-3[N-(2-methoxyethyl)-N-methyl]carbamoyl-4-(naphthalen-1-yl)-1H-pyrrole] | 1 to 10 nM | 10 to 1000 nM | 10 to 100 nM | 1000 to 50000 nM |
| COCCN(C)C(=O)c1cn(Cc2cncn2CC2CCN(C(=O)NC3CCCCC3)CC2)cc1-c1cccc2ccccc12 [Compound 11, 1-{1-[1-(N-Cyclohexylcarbamoyl)-piperidin-4-ylmethyl]-1H-imidazol-5-ylmethyl}-3-[N-(2-methoxyethyl)-N-methyl]carbamoyl-4-(naphthalen-1-yl)-1H-pyrrole] | 1 to 10 nM | 10 to 1000 nM | 10 to 100 nM | 1000 to 50000 nM |
| CCCCCCC(=O)N1CCC(Cn2cncc2Cn2cc(C(=O)N(C)CCOC)c(-c3cccc4ccccc34)c2)CC1 [Compound 12, 1-[1-(1-Heptanoyl-piperidin-4-ylmethyl)-1H-imidazol-5-ylmethyl]-3-[N-(2-methoxyethyl)-N-methyl]carbamoyl-4-(naphthalen-1-yl)-1H-pyrrole] | 1 to 10 nM | 10 to 1000 nM | 10 nM | 1000 to 50000 nM |
| COCCN(C)C(=O)c1cn(Cc2cncn2CC2CCN(C(=O)Cc3ccc(OC)cc3)CC2)cc1-c1cccc2ccccc12 [Compound 13, 1-{1-[1-(4-Methoxybenzylcarbonyl)-piperidin-4-ylmethyl]-1H-imidazol-5-ylmethyl}-3-[N-(2-methoxyethyl)-N-methyl]carbamoyl-4-(naphthalen-1-yl)-1H-pyrrole] | 1 to 10 nM | 10 to 1000 nM | 10 to 100 nM | 1000 to 50000 nM |
| COCCN(C)C(=O)c1cn(Cc2cncn2CC2CCN(C(=O)CCc3ccccc3)CC2)cc1-c1cccc2ccccc12 [Compound 15, 3-[N-(2-Methoxyethyl)-N-methyl]carbamoyl-4-(naphthalen-1-yl)-1-{1-[1-(2-phenylethylcarbonyl)-piperidin-4-ylmethyl]-1H-imidazol-5-ylmethyl}-1H-pyrrole] | 1 nM | 10 to 1000 nM | 10 to 100 nM | 1000 to 50000 nM |
